According to publication PMC8063233 (The Journal of Clinical Endocrinology and Metabolism, 2020):

Experiment: Plasma pharmacokinetics on day 7 of each treatment period
Assay type: in vivo, human
Conditions: day 7, verinurad + febuxostat with placebo (n = 36)

tmax, Median (min-max): 4.00 (3.00-8.08) h
SMILES: CC(C)(Sc1ccncc1-c1ccc(C#N)c2ccccc12)C(=O)O [Verinurad, verinurad]
